Test results reported in publication PMC11696576, “Next generation thiazolyl ketone inhibitors of cytosolic phospholipase A2 α for targeted cancer therapy” (Nature Communications, 2025).

Tested on: CCRF-CEM cells
Test: RNA-Seq differential gene expression
Assay type: cell-based, human
Details: for log2(fold change): Upregulated
From the text: Given our findings that the sensitivity to AVX420 was dependent on increased intracellular ROS, we hypothesized that activation of the integrated stress response (ISR) by oxidative damage may be the cause of cell death. The ISR converges on deactivation of the eukaryotic translation initiation factor 2 alpha (eIF2α) to globally suppress translation, with the exception of selected genes (e.g., activating transcription factor (ATF) 4) which activate robust transcriptional changes to restore homeostasis and promote survival or, when oxidative damage is sustained, to initiate programmed cell death. To investigate this, we used a combination of RNA-SEQ and Ribosomal RNA-SEQ (Ribo-SEQ) to measure the global transcriptional and translational response to AVX420 in CCRF-CEM cells. […] Translational effects were determined by calculating the proportion of total transcript associated with the ribosome (ribosomal occupancy (RO)). […] As a positive control we treated cells for 1 hour with the dual mTOR inhibitor Torin-1, which reduced the RO of 20 mRNAs.
CCRF-CEM cells seeded at 200,000 viable cells/mL were treated with AVX420 (0.5 μM) or DMSO (0.1%) and harvested after 1 hour, 6 h, or 16 h. Torin-1 (100 nM) treatment was harvested after 1 h. The flasks were placed on ice and the cell suspensions were transferred to 50 mL conical tubes for centrifugation (405 × g, 4 °C, 5 min). […] The cells were collected and centrifuged at 405 x g for 5 min at 4 °C. The supernatant was discarded, and the cells were suspended in 1 mL of DPBS before centrifugation at 405 x g for 5 min at 4 °C. Resulting cell pellets were snap-frozen in liquid nitrogen and stored at −80 °C. RNA-Seq and ribosome-associated RNA(Ribo)-Seq was performed by Eclipsebio (eclipsebio.com). Protocols are available in the Supplemental Methods section. […]
correction using the Benjamini-Hochberg correction to control the rate of false-posi-tives. Gene sets with false discovery rate <20% were considered significant. […]
RNA-Seq and ribosome-associated RNA(Ribo)-Seq
RNA-Seq and ribosome-associated RNA(Ribo)-Seq was performed by Eclipsebio (eclipsebio.com). The cytosolic fraction of crosslinked cell pellets was isolated and RNA quality and quantity was assessed before 250 ng of the isolated RNA was used to build 3’ RNA-Seq libraries. 10 µg RNA was used for immunoprecipitation (IP) for Ribo-SEQ analysis. Non-crosslinked RNA was removed from the IP through multiple wash steps and the remaining RNA was released via proteinase digestion. RNA from both sources was fragmented and libraries were generated from the poly(A) tails. Li-braries were sequenced on a NextSeq 2 000. After sequencing, samples were pro-cessed with Eclipsebio’s proprietary analysis pipeline (v1). Unique molecular identifi-ers (UMIs) were pruned from read sequences using umitools (v1.1.1). Next 3' adapt-ers were trimmed from reads using cutadapt (v3.2). Reads were then mapped to a cus-tom, curated database of repetitive elements and rRNA sequences. All non -repeat mapped reads were mapped to the genome hg38 using STAR (v2.7.7a) and PCR du-plicates were removed using umi_tools (v1.1.1). Gene coverage was cal culated using Eclipsebio’s proprietary feature counting algorithm and ribosome occupancy was cal-culated by dividing coverage in the ribosome -associated (IP) library by the RNA -Seq library. Differentially expressed and occupied genes were identified using D ESeq2.
Significant differential expression was defined using a cutoff on p.value < 0.01 (after multiple testing adjustment, "padj" metric) and requiring the fold change in gene cov-erage to be greater than 1 or less than -1 (log2 scale). Significance of the ribosomal occupancy (RO) difference was determined by extending DESeq2 models to include RO fold change as an interaction between the experimental condition and the library type. Genes with a RO log2 (fold change) > 1 or < -1 and an adjusted p-value < 0.01 were considered significant. […]

CCCCCCCOc1ccc(OCC(=O)c2nc(C(=O)OC)cs2)cc1 [GK420]
log2(fold change) (ADM2, 6 h): 1.49
log2(fold change) (ATF3, 6 h): 1.05
changes in gene expression (CCRF-CEM, 0.5 μM, 1 hour): No significant changes
log2FC ADM2 (CCRF-CEM, 0.5 μM, 6 h): 1.49
log2FC ATF3 (CCRF-CEM, 0.5 μM, 6 h): 1.05
log2FC CHAC1 (CCRF-CEM, 0.5 μM, 6 h): 2.25
log2FC DDIT3 (CCRF-CEM, 0.5 μM, 6 h): 1.15
log2FC ENSG00000260498 (CCRF-CEM, 0.5 μM, 6 h): 1.44
log2FC GPT2 (CCRF-CEM, 0.5 μM, 6 h): 1.24
log2FC L3MBTL2-AS1 (CCRF-CEM, 0.5 μM, 6 h): 2.13
log2FC LINC-PINT (CCRF-CEM, 0.5 μM, 6 h): 1.34
log2FC LY9 (CCRF-CEM, 0.5 μM, 6 h): 1.05
log2FC SESN2 (CCRF-CEM, 0.5 μM, 6 h): 1.59
log2FC SLC6A9 (CCRF-CEM, 0.5 μM, 6 h): 1.25
log2FC SLC7A11 (CCRF-CEM, 0.5 μM, 6 h): 1.57
log2FC ULBP1 (CCRF-CEM, 0.5 μM, 6 h): 1.2
log2FC VLDLR (CCRF-CEM, 0.5 μM, 6 h): 1.27
log2FC VLDLR-AS1 (CCRF-CEM, 0.5 μM, 6 h): 1.02
log2FC YAP1 (CCRF-CEM, 0.5 μM, 6 h): 1.04
number of genes upregulated (CCRF-CEM, 0.5 μM, 6 h): 16
number of differentially expressed genes (DEGs) (CCRF-CEM, 0.5 μM, 16 h): 82
log2FoldChange ADM2 (CCRF-CEM, 0.5 μM, 16 hours): 2.31
log2FoldChange AQP3 (CCRF-CEM, 0.5 μM, 16 hours): -1.1
log2FoldChange B4GALNT1 (CCRF-CEM, 0.5 μM, 16 hours): 2.37
log2FoldChange CAMKK1 (CCRF-CEM, 0.5 μM, 16 hours): -1.18
log2FoldChange CAMKV (CCRF-CEM, 0.5 μM, 16 hours): -1.07
log2FoldChange CHAC1 (CCRF-CEM, 0.5 μM, 16 hours): 3.51
log2FoldChange DUSP2 (CCRF-CEM, 0.5 μM, 16 hours): -1.04
log2FoldChange ENSG00000260498 (CCRF-CEM, 0.5 μM, 16 hours): 2.28
log2FoldChange GPT2 (CCRF-CEM, 0.5 μM, 16 hours): 3.48
log2FoldChange HRG (CCRF-CEM, 0.5 μM, 16 hours): 2.92
log2FoldChange IFRD1 (CCRF-CEM, 0.5 μM, 16 hours): 2.08
log2FoldChange L3MBTL2-AS1 (CCRF-CEM, 0.5 μM, 16 hours): 3.01
log2FoldChange LINC02970 (CCRF-CEM, 0.5 μM, 16 hours): 3.49
log2FoldChange LRRTM1 (CCRF-CEM, 0.5 μM, 16 hours): -1.11
log2FoldChange MIR22HG (CCRF-CEM, 0.5 μM, 16 hours): 2.58
log2FoldChange MYT1 (CCRF-CEM, 0.5 μM, 16 hours): -1.13
log2FoldChange NDUFA4L2 (CCRF-CEM, 0.5 μM, 16 hours): 2.19
log2FoldChange NMRAL2P (CCRF-CEM, 0.5 μM, 16 hours): 2.89
log2FoldChange NOL3 (CCRF-CEM, 0.5 μM, 16 hours): 2.29
log2FoldChange OSGIN1 (CCRF-CEM, 0.5 μM, 16 hours): 3.08
log2FoldChange PNMA1 (CCRF-CEM, 0.5 μM, 16 hours): -1.02
log2FoldChange RAG1 (CCRF-CEM, 0.5 μM, 16 hours): -1.12
log2FoldChange RFPL1S (CCRF-CEM, 0.5 μM, 16 hours): 2.61
log2FoldChange RPL23AP42 (CCRF-CEM, 0.5 μM, 16 hours): -2.03
log2FoldChange SESN2 (CCRF-CEM, 0.5 μM, 16 hours): 2.53
log2FoldChange SLC6A9 (CCRF-CEM, 0.5 μM, 16 hours): 2.93
log2FoldChange SLC7A11 (CCRF-CEM, 0.5 μM, 16 hours): 3.42
log2FoldChange THOC3 (CCRF-CEM, 0.5 μM, 16 hours): -1.74
log2FoldChange TM6SF1 (CCRF-CEM, 0.5 μM, 16 hours): 2.49
log2FoldChange VLDLR-AS1 (CCRF-CEM, 0.5 μM, 16 hours): 2.44
log2(fold change) (CHAC1, 6 h): 2.25
log2(fold change) (DDIT3, 6 h): 1.15
log2(fold change) (ENSG00000260498, 6 h): 1.44
log2(fold change) (GPT2, 6 h): 1.24
log2(fold change) (L3MBTL2-AS1, 6 h): 2.13
log2(fold change) (LINC-PINT, 6 h): 1.34
log2(fold change) (LY9, 6 h): 1.05
log2(fold change) (SESN2, 6 h): 1.59
log2(fold change) (SLC6A9, 6 h): 1.25
log2(fold change) (SLC7A11, 6 h): 1.57
log2(fold change) (ULBP1, 6 h): 1.2
log2(fold change) (VLDLR, 6 h): 1.27
log2(fold change) (VLDLR-AS1, 6 h): 1.02
log2(fold change) (YAP1, 6 h): 1.04
